Data taken from ChEMBL document CHEMBL1201862, “PubChem BioAssay data set” (2004).
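Five compound concentrations were applied to cells in 96-well plates for 48 hours; endpoints were derived by simple linear interpolation of the resulting dose-response curve. Abbreviation: GI50, concentration required for 50% inhibition of growth.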 Active and inactive are the calls of the source. Rule as the data show it: active = GI50 up to about 1.1 µM and inactive = higher.

Experiments:
Assay in all cases: inhibition of tumour cell growth, NCI panel, 48 h
KM-20L2 = system: KM-20L2
SN12C = system: SN12C
DLD-1 = system: DLD-1
786-0 = system: 786-0
RXF 393 = system: RXF 393
TK-10 = system: TK-10
HT-29 = system: HT-29
HCT-116 = system: HCT-116
OVCAR-8 = system: OVCAR-8
SF-295 = system: SF-295
A549 = system: A549
SK-OV-3 = system: SK-OV-3
HOP-18 = system: HOP-18
SK-MEL-28 = system: SK-MEL-28
HCT-15 = system: HCT-15
SNB-19 = system: SNB-19
U-251 = system: U-251
SK-MEL-2 = system: SK-MEL-2

| SMILES | GI50 (KM-20L2) | GI50 (SN12C) | GI50 (DLD-1) | GI50 (786-0) | GI50 (RXF 393) | GI50 (TK-10) | GI50 (HT-29) | GI50 (HCT-116) | GI50 (OVCAR-8) | GI50 (SF-295) | GI50 (A549) | GI50 (SK-OV-3) | GI50 (HOP-18) | GI50 (SK-MEL-28) | GI50 (HCT-15) [µM] | GI50 (SNB-19) | GI50 (U-251) | GI50 (SK-MEL-2) |
| --- | --- | --- | --- | --- | --- | --- | --- | --- | --- | --- | --- | --- | --- | --- | --- | --- | --- | --- |
| COC(=O)C(=O)C(CC(=O)Nc1ccc(C)cc1)C(=O)OC (stereo not drawn) | > 100 µM (inactive) | > 100 µM (inactive) | > 100 µM (inactive) | > 100 µM (inactive) | > 100 µM (inactive) | > 100 µM (inactive) | > 100 µM (inactive) | > 100 µM (inactive) | > 100 µM (inactive) | > 100 µM (inactive) | > 100 µM (inactive) | > 100 µM (inactive) | > 100 µM (inactive) | > 100 µM (inactive) | > 100 | > 100 µM (inactive) | > 100 µM (inactive) | > 100 µM (inactive) |
| Cc1nc(Nc2ccc([N+](=O)[O-])cc2)sc1C(=O)/C=C/c1ccc(N(C)C)cc1 | 73.1 µM (inactive) | > 100 µM (inactive) | 60.5 µM (inactive) | > 100 µM (inactive) | 30.4 µM (inactive) | 77.4 µM (inactive) | > 100 µM (inactive) |  | 73.3 µM (inactive) | 40.1 µM (inactive) | 40.7 µM (inactive) | > 100 µM (inactive) | > 100 µM (inactive) | > 100 µM (inactive) | 44.6 | > 100 µM (inactive) | > 100 µM (inactive) | 64.3 µM (inactive) |
| COc1cccc2c1C(=O)C1(O)CCCCC21 (stereo not drawn) | > 100 µM (inactive) | > 100 µM (inactive) | > 100 µM (inactive) | > 100 µM (inactive) | > 100 µM (inactive) | > 100 µM (inactive) | > 100 µM (inactive) | > 100 µM (inactive) | > 100 µM (inactive) | > 100 µM (inactive) | > 100 µM (inactive) | > 100 µM (inactive) | > 100 µM (inactive) | > 100 µM (inactive) | > 100 | > 100 µM (inactive) | > 100 µM (inactive) | > 100 µM (inactive) |
| [N-]=[N+]=NC(c1cn(C2CC(O)C(CO)O2)c(=O)[nH]c1=O)C(Cl)Br (stereo not drawn) | > 100 µM (inactive) | > 100 µM (inactive) | > 100 µM (inactive) | > 100 µM (inactive) | > 100 µM (inactive) | > 100 µM (inactive) | > 100 µM (inactive) | > 100 µM (inactive) | > 100 µM (inactive) | > 100 µM (inactive) | > 100 µM (inactive) |  | 47.2 µM (inactive) | > 100 µM (inactive) | > 100 | > 100 µM (inactive) | > 100 µM (inactive) | > 100 µM (inactive) |
| Brc1ccc(/N=c2/nc3ccccn3n3nc(-c4ccccc4)cc23)cc1 | 66.4 µM (inactive) | 81.8 µM (inactive) | 14.7 µM (inactive) | 19.9 µM (inactive) | 14.9 µM (inactive) | 29.8 µM (inactive) | 75.5 µM (inactive) | 52.6 µM (inactive) | 28.3 µM (inactive) | 34.8 µM (inactive) | 56.5 µM (inactive) | > 100 µM (inactive) | 29.6 µM (inactive) | 36 µM (inactive) | 30.5 | 28.5 µM (inactive) | 29 µM (inactive) | 9.57 µM (inactive) |
| COc1ccc2c3c(n(Cc4ccccc4)c(=O)c2c1)-c1cc(OC)c(OC)cc1C3C (stereo not drawn) | 25.6 µM (inactive) | 14.7 µM (inactive) | 50.9 µM (inactive) | 7.45 µM (inactive) | 12.3 µM (inactive) | > 54.3 µM (inactive) | 25.7 µM (inactive) | 14.7 µM (inactive) | 19.8 µM (inactive) | 11.6 µM (inactive) | 18.6 µM (inactive) | 18.8 µM (inactive) | 28.3 µM (inactive) | 43.5 µM (inactive) | 28.1 | 21.7 µM (inactive) | 5.69 µM (inactive) | 17 µM (inactive) |
| C=CCCCN1CCCC(C)C1=S (stereo not drawn) | > 100 µM (inactive) |  | > 100 µM (inactive) | > 100 µM (inactive) | > 100 µM (inactive) | > 100 µM (inactive) | > 100 µM (inactive) | > 100 µM (inactive) | > 100 µM (inactive) | > 100 µM (inactive) | > 100 µM (inactive) | > 100 µM (inactive) | > 100 µM (inactive) | > 100 µM (inactive) | > 100 | > 100 µM (inactive) | > 100 µM (inactive) | > 100 µM (inactive) |
| COC(=O)c1ccccc1NC(=O)C(=O)NNC(=O)c1ccncc1 | > 100 µM (inactive) | > 100 µM (inactive) | > 100 µM (inactive) | > 100 µM (inactive) | > 100 µM (inactive) | > 100 µM (inactive) | > 100 µM (inactive) | > 100 µM (inactive) | > 100 µM (inactive) | > 100 µM (inactive) | > 100 µM (inactive) | > 100 µM (inactive) | > 100 µM (inactive) | > 100 µM (inactive) | > 100 | > 100 µM (inactive) |  |  |
| Nc1ccc2c(c1)Oc1c(F)c(F)cc3c(=O)c(C(=O)O)cn-2c13 | 53.6 µM (inactive) | 39.1 µM (inactive) | 43.9 µM (inactive) | 28.1 µM (inactive) | 43.8 µM (inactive) | 38.1 µM (inactive) | 35.2 µM (inactive) | 24.2 µM (inactive) | 40.2 µM (inactive) |  | 32.9 µM (inactive) | > 100 µM (inactive) | 51.5 µM (inactive) | 40.3 µM (inactive) | 46.2 | 35.2 µM (inactive) | 34.2 µM (inactive) | 80.2 µM (inactive) |
| Cc1c(Cl)ccc2c1NC(=O)C2(O)C1Cc2ccccc2C1=O (stereo not drawn) | > 100 µM (inactive) | > 100 µM (inactive) | > 100 µM (inactive) | 41.3 µM (inactive) | 57.9 µM (inactive) | > 100 µM (inactive) | > 100 µM (inactive) | 62.7 µM (inactive) | 11.2 µM (inactive) | > 100 µM (inactive) | > 100 µM (inactive) | > 100 µM (inactive) | > 100 µM (inactive) | > 100 µM (inactive) | > 100 | > 100 µM (inactive) | 27.7 µM (inactive) | > 100 µM (inactive) |
| CC(C)(C)c1cc(CCC(=O)Nc2ccc(Cl)cc2)nc(S)n1 | > 100 µM (inactive) | > 100 µM (inactive) | > 100 µM (inactive) | > 100 µM (inactive) | > 100 µM (inactive) | > 100 µM (inactive) | > 100 µM (inactive) |  | > 100 µM (inactive) | > 100 µM (inactive) | > 100 µM (inactive) | > 100 µM (inactive) | > 100 µM (inactive) | > 100 µM (inactive) | > 100 | > 100 µM (inactive) | > 100 µM (inactive) | > 100 µM (inactive) |
| COc1ccc(/C=C2/C[N+](C)(C)C/C(=C/c3ccc(OC)cc3)C2=O)cc1 | 50 µM (inactive) | 36.1 µM (inactive) | 28.7 µM (inactive) | 34.7 µM (inactive) | > 100 µM (inactive) | > 100 µM (inactive) | 30.2 µM (inactive) | 32.5 µM (inactive) | 31.9 µM (inactive) | > 77.1 µM (inactive) | > 76.4 µM (inactive) | > 100 µM (inactive) | > 100 µM (inactive) | 12.9 µM (inactive) | > 100 | 43.3 µM (inactive) | 19.5 µM (inactive) | 25.6 µM (inactive) |
| CC1(C)CC(=O)C(C(=O)C(=O)NC2=C(Cl)C(=O)c3ccccc3C2=O)C(=O)C1 | > 100 µM (inactive) | 73.6 µM (inactive) | > 100 µM (inactive) | > 100 µM (inactive) | 70.8 µM (inactive) | > 100 µM (inactive) | 80.7 µM (inactive) | > 100 µM (inactive) | > 100 µM (inactive) | > 100 µM (inactive) | > 100 µM (inactive) | > 100 µM (inactive) | > 100 µM (inactive) | > 100 µM (inactive) | 46.5 | > 100 µM (inactive) | 82.2 µM (inactive) | > 100 µM (inactive) |
| COP1(=O)CC2C(Cl)(Cl)C2(C)C1 (stereo not drawn) | > 100 µM (inactive) | > 100 µM (inactive) | > 100 µM (inactive) | > 100 µM (inactive) | > 100 µM (inactive) | > 100 µM (inactive) | > 100 µM (inactive) | > 100 µM (inactive) | > 100 µM (inactive) | > 100 µM (inactive) | > 100 µM (inactive) | > 100 µM (inactive) | > 100 µM (inactive) | > 100 µM (inactive) |  | > 100 µM (inactive) | > 100 µM (inactive) |  |
| CCc1ccccc1NC(=O)C(=O)CC(=O)c1sc(Nc2ccccc2)nc1C | > 100 µM (inactive) | > 100 µM (inactive) | > 100 µM (inactive) | > 100 µM (inactive) | > 100 µM (inactive) | > 100 µM (inactive) | > 100 µM (inactive) | > 100 µM (inactive) | > 100 µM (inactive) | > 100 µM (inactive) | > 100 µM (inactive) | > 100 µM (inactive) | > 100 µM (inactive) | > 100 µM (inactive) | > 100 | > 100 µM (inactive) | > 100 µM (inactive) | > 100 µM (inactive) |
| Cc1ccccc1NC(=O)CC(=O)n1nc(-c2ccccc2)c(/N=N/c2ccc([N+](=O)[O-])cc2)c1-c1ccccc1 | 16.7 µM (inactive) | 22.1 µM (inactive) | 18.7 µM (inactive) | 22.1 µM (inactive) | 19.1 µM (inactive) | 37.1 µM (inactive) | 8.34 µM (inactive) | 14.4 µM (inactive) | 31.4 µM (inactive) | 17.4 µM (inactive) | 16.1 µM (inactive) | 16.7 µM (inactive) | 16.5 µM (inactive) | 27.3 µM (inactive) |  | 25.6 µM (inactive) | 14.1 µM (inactive) | 25.3 µM (inactive) |
